For one series, the target named is 5-HT2A receptor (Rattus norvegicus, UniProt P14842). Nature of the series: 5-HT2A competition binding assay ([3H]ketanserin, frontal cortex homogenates). The settings on record: read-out: 5-HT2A Ki (95% CI).
Another series concerns the target T1, human 5-HT2C receptor (Homo sapiens, UniProt P28335).
T1 sequence (P28335 33-458): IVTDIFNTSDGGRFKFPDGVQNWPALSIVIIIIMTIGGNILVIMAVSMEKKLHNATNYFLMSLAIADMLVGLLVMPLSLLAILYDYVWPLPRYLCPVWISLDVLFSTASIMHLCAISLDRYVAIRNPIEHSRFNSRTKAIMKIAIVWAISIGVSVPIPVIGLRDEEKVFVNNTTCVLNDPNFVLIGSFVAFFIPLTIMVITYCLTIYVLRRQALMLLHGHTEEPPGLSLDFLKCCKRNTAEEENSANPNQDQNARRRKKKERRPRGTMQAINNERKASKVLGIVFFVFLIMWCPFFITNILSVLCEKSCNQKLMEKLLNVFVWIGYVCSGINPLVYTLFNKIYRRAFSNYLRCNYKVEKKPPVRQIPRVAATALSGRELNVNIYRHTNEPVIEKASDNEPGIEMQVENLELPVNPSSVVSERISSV
Nature of the series: 5-HT2C competition binding assay ([3H]mesulergine, transfected cell membranes). To be noted: [3H]mesulergine, human 5-HT2C membranes; read-out: 5-HT2C Ki (95% CI).

The next series has as its target T2, D2 receptor (Rattus norvegicus, UniProt P61169).
T2 construct: 15μg/mL of striatal homogenate was incubated in triplicate; from tissue; host or cells: rat striatum homogenate
Nature of the series: Functional D2 receptor [35S]GTPγS assay (antagonist mode vs dopamine; basal for agonism).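 Further: [35S]GTPγS binding counted by scintillation after 60 min at 30 °C, nonspecific binding defined with 100 µM unlabeled GTPγS, inhibition curves fitted by one-site nonlinear regression.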 The class given is biochemical. The settings on record: against 40 µM dopamine, rat striatal homogenate; read-out: D2 receptor antagonistic activity IC50 (95% CI). Background: Binding of GTPγS marks nucleotide exchange on a G protein.

Series [1] concerns mice. Nature of the series: Forced swim test (FST, Porsolt's test). The class given is in vivo, mouse. The settings on record: 60 min before the test. The method, then:
The experiments were carried out, in the Experimental Medicine Center of Medical University of Lublin, on six-week-old naive male Swiss mice, weighing 24–30 g. The mice were housed in cages, five individuals per cage in an environmentally controlled rooms (ambient temperature 22 ± 1 °C; relative humidity 50–60%; 12 h light/dark cycle, lights on at 8:00). Standard laboratory food(LSM-Agropol-Motycz, Lublin, Poland) and filtered water were available ad libitum. All the experimental procedures were carried out, according to the National Institute of Health Guidelines for the Care and Use of Laboratory Animals and to the European Community Council Directive for the Care and Use of Laboratory Animals of 22 September 2010 (2010/63/EU) and approved by the Local Ethics Committee for Animal Experimentation in Lublin. The investigated compounds (Norbo-4, Norbo-8, Norbo-10, Norbo-14, Norbo-18 and Norbo-20) in all tests were administered intraperitoneally (i.p.), dissolved in dimethyl sulfoxide (DMSO, final concentration of 0.1%) and then diluted by aqueous solution of 0.5% methylcellulose (tylose) and injected 60 min before the tests. […] All compounds were given in a volume of 10 mL/kg to mice. The control animals received an equivalent volume of the solvent at the respective time before the tests. All the experiments were conducted in the light phase between 09.00 a.m. and 14.00 p.m. The experiments were performed by an observer unaware of the treatment administered. The experiment was carried out according to the method of Porsolt et al.. Mice were individually placed in a glass cylinder (25 cm high; 10 cm in diameter) containing water maintained at 23–25 °C, and were left there for 6 min. The total duration of immobility was recorded during the last 4 min of a 6-min test session. A mouse was regarded as immobile when it remained floating on the water, making only small movements to keep its head above the water.

The test system of series [2] is mice. Nature of the series: Chimney test (motor coordination). The class given is in vivo, mouse. The settings on record: 60 min before the test. Here is the method: The experiments were carried out, in the Experimental Medicine Center of Medical University of Lublin, on six-week-old naive male Swiss mice, weighing 24–30 g. The mice were housed in cages, five individuals per cage in an environmentally controlled rooms (ambient temperature 22 ± 1 °C; relative humidity 50–60%; 12 h light/dark cycle, lights on at 8:00). Standard laboratory food(LSM-Agropol-Motycz, Lublin, Poland) and filtered water were available ad libitum. All the experimental procedures were carried out, according to the National Institute of Health Guidelines for the Care and Use of Laboratory Animals and to the European Community Council Directive for the Care and Use of Laboratory Animals of 22 September 2010 (2010/63/EU) and approved by the Local Ethics Committee for Animal Experimentation in Lublin. The investigated compounds (Norbo-4, Norbo-8, Norbo-10, Norbo-14, Norbo-18 and Norbo-20) in all tests were administered intraperitoneally (i.p.), dissolved in dimethyl sulfoxide (DMSO, final concentration of 0.1%) and then diluted by aqueous solution of 0.5% methylcellulose (tylose) and injected 60 min before the tests. […] All compounds were given in a volume of 10 mL/kg to mice. The control animals received an equivalent volume of the solvent at the respective time before the tests. All the experiments were conducted in the light phase between 09.00 a.m. and 14.00 p.m. The experiments were performed by an observer unaware of the treatment administered. The effects of investigated compounds on motor coordination were evaluated in the rota-rod and chimney tests. In the first test, motor impairments were measured, defined as the inability to keep balance on a rotating rod (at constant speed of 18 rpm) for 1 min. In the second test, motor impairments were assessed by mouse inability to climb up the tube backwards (3 cm in inner diameter, 25 cm long) within 60 s. Before the tests, the animals were trained once a day for 3 days. The animals able to stay on the rotating rod or to leave the chimney for 60 s were approved for experiments.

Entries after “also recorded” stand apart in the source; their conditions may differ.

As usually defined, the Ki is the dissociation constant of the complex between target and ligand, obtained from inhibition or displacement. A word on the IC50: it is the concentration that gives 50% inhibition.

T2 sequence (P61169 whole entry): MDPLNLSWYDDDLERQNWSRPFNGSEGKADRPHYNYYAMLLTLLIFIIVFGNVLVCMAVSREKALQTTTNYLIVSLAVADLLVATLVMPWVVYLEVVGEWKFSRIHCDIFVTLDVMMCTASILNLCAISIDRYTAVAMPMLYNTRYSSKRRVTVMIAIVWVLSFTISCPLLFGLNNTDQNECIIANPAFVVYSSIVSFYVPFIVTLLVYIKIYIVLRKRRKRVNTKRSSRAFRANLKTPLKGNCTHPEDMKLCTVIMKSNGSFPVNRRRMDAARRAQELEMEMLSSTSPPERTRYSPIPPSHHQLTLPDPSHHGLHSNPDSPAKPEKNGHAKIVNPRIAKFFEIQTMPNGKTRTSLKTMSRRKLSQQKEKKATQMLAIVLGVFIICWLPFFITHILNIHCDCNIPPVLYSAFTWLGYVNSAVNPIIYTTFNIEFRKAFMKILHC
5-HT2A receptor, sequence (P14842 whole entry): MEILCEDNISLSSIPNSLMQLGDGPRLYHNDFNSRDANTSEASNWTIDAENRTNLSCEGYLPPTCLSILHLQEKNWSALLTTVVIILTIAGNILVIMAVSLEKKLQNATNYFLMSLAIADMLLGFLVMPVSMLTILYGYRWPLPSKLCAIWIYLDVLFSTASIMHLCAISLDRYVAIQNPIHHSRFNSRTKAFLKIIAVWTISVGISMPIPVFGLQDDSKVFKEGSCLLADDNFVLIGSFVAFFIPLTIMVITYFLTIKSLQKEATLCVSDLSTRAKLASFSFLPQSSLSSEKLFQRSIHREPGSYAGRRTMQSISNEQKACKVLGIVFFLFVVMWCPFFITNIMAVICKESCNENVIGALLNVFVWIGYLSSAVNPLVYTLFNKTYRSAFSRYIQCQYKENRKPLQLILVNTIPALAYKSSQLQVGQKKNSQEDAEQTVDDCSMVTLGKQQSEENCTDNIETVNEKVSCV

`Cc1cccc(N2CCN(CCCNC(=O)C3CC4C=CC3C4)CC2)c1C` (stereo not drawn) [Norbo-4, endo-N-(3-(4-(2,3-dimethylphenyl)piperazin-1-yl)propyl)bicyclo[2.2.1]hept-5-ene-2-carboxamide]: the inhibitory constant (Ki) on 5-HT2A receptor was 33.3 nM; at human 5-HT2C receptor, 2090 nM. The IC50 at D2 receptor was determined as 33100 nM. Moreover, the results for the “immobility time in FST” value in the series on mice [1] (3.75 mg/kg i.p.), in the series with mice [1] (15 mg/kg i.p.) and with mice [1] (30 mg/kg i.p.) were “significant reduction in immobility time; also recorded: significant reduction of immobility time”, “significant reduction in immobility time; also recorded: significant reduction of immobility time” and “significant reduction in immobility time”, respectively. Also, the time in chimney result with mice [2] (15 mg/kg i.p.) is “significant increase of time in chimney”; with mice [2] (30 mg/kg i.p.) it was “significant increase of time in chimney; also recorded: disturbed the behavior of mice”.

(Values after PMC9572521, “Synthesis, Docking Studies and Pharmacological Evaluation of Serotoninergic Ligands Containing a 5-Norbornene-2-Carboxamide Nucleus” (Molecules, 2022).)
